Test results as given in patent US20260176267A1, “PREPARATION OF IMIDAZOPYRIDINE AND IMIDAZOPYRIDAZINE DERIVATIVES AS NOVEL DIACYLGLYCERIDE O-ACYLTRANSFERASE 2 INHIBITORS” (Merck Sharp & Dohme LLC, priority 2022, published 2026).

Biological target: T1, human DGAT2 (hDGAT2) (Homo sapiens, UniProt Q96PD7)
T1 construct: made in house; host or cells: Sf-9 insect cells (baculovirus), membrane fraction
T1 sequence (Q96PD7 1-388): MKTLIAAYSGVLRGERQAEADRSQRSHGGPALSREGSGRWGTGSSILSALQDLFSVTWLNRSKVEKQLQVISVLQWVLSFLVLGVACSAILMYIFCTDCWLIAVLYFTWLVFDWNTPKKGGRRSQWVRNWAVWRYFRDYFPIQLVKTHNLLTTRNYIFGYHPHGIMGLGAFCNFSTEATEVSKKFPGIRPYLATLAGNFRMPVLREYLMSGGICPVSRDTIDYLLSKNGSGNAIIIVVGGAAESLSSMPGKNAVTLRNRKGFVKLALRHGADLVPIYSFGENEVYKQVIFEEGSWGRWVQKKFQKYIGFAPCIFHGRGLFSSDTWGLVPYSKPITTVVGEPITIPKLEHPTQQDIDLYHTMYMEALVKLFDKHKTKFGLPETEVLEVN
Experiment: DGAT2 Enzymatic Activity Assay
Type: biochemical
Conditions: membrane prep of Sf-9 cells expressing hDGAT2; 13C18-triolein product by LC/MS/MS; 25 μM diolein, 5 μM 13C oleoyl-CoA, rt
In short: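 At room temperature, DGAT2 activity in baculovirus-infected Sf-9 membrane preps (human enzyme, untagged) is measured as formation of ^13C18-triolein. Product is extracted and measured by positive-mode LC/MS/MS, with the ratio to spiked ^13C21-triolein giving inhibition and IC50.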

| IC50 [nM] | Compound |
| --- | --- |
| 24 | CC1(NC(=O)c2nc3ccc(Oc4ncc(Cl)cc4OCC(F)F)nn3c2Cl)CS(=O)(=O)C1 [Example 176, 3-chloro-6-[[5-chloro-3-(2,2-difluoroethoxy)-2-pyridyl]oxy]-N-(3-methyl-1,1-dioxo-thietan-3-yl)imidazo[1,2-b]pyridazine-2-carboxamide] |
| 391 | CC1(NC(=O)c2nc3cc(Cl)c(Oc4nccnc4OCC(F)(F)F)nn3c2Cl)CCS(=O)(=O)CC1 [Example 177, 3,7-dichloro-N-(4-methyl-1,1-dioxo-thian-4-yl)-6-[3-(2,2,2-trifluoroethoxy)pyrazin-2-yl]oxy-imidazo[1,2-b]pyridazine-2-carboxamide] |
| 4000 | CC1(NC(=O)c2nc3ccc(Oc4nccnc4OCC(F)(F)F)nn3c2Cl)CCS(=O)(=O)CC1 [Example 178, 3-chloro-N-(4-methyl-1,1-dioxo-thian-4-yl)-6-[3-(2,2,2-trifluoroethoxy)pyrazin-2-yl]oxy-imidazo[1,2-b]pyridazine-2-carboxamide] |
| 101 | CC1(NC(=O)c2nc3cc(Cl)c(Oc4ncc(Cl)cc4OCC(F)(F)F)nn3c2Cl)CS(=O)(=O)C1 [Example 179, 3,7-dichloro-6-[[5-chloro-3-(2,2,2-trifluoroethoxy)-2-pyridyl]oxy]-N-(3-methyl-1,1-dioxo-thietan-3-yl)imidazo[1,2-b]pyridazine-2-carboxamide] |
| 53 | CC1(NC(=O)c2cn3nc(OCc4ncc(Cl)cc4OCC(F)F)ccc3n2)CCS(=O)(=O)CC1 [Example 180, 6-((5-Chloro-3-(2,2-difluoroethoxy)pyridin-2-yl)methoxy)-N-(4-methyl-1,1-dioxidotetrahydro-2H-thiopyran-4-yl)imidazo[1,2-b]pyridazine-2-carboxamide] |
| 25 | CC1(NC(=O)c2cn3nc(OCc4c(F)cccc4OC(F)F)ccc3n2)CCS(=O)(=O)CC1 [Example 181, 6-[[2-(Difluoromethoxy)-6-fluoro-phenyl]methoxy]-N-(4-methyl-1,1-dioxo-thian-4-yl)imidazo[1,2-b]pyridazine-2-carboxamide] |
| 11 | CC1(NC(=O)c2cn3nc(OCc4ncc(F)cc4OCC(F)(F)F)ccc3n2)CCS(=O)(=O)CC1 [Example 182, 6-[[5-Fluoro-3-(2,2,2-trifluoroethoxy)-2-pyridyl]methoxy]-N-(4-methyl-1,1-dioxo-thian-4-yl)imidazo[1,2-b]pyridazine-2-carboxamide] |
| 808 | Cc1cn(C)nc1COc1ccc2nc(C(=O)NC3(C)CCS(=O)(=O)CC3)cn2n1 [Example 183, 6-((1,4-dimethyl-1H-pyrazol-3-yl)methoxy)-N-(4-methyl-1,1-dioxidotetrahydro-2H-thiopyran-4-yl)imidazo[1,2-b]pyridazine-2-carboxamide] |
| 6340 | CCOc1ccccc1Oc1ccc2nc(C(=O)N[C@H]3CCOC3)cn2c1 [Example 184, (S)-6-(2-ethoxyphenoxy)-N-(tetrahydrofuran-3-yl)imidazo[1,2-a]pyridine-2-carboxamide] |
| 33 | CC1(NC(=O)c2cn3cc(Oc4ncc(Cl)cc4OCC(F)(F)F)cnc3n2)CCS(=O)(=O)CC1 [Example 186, 6-((5-Chloro-3-(2,2,2-trifluoroethoxy)pyridin-2-yl)oxy)-N-(4-methyl-1,1-dioxidotetrahydro-2H-thiopyran-4-yl)imidazo[1,2-a]pyrimidine-2-carboxamide] |
